Measurements taken from patent US20230088214A1, “GLYCOLATE OXIDASE INHIBITORS FOR THE TREATMENT OF DISEASE” (BIOMARIN PHARMACEUTICAL INC., priority 2019, published 2023).

Tests used:
GO [1] = molecular target: T1, GO (Mus musculus, UniProt Q9WU19); test: GO Cellular Assay: Primary Hepatocyte Assay (Assay 2); format: cell-based; conditions: primary mouse hepatocytes, 5 mM glycolate, oxalate at 72 hours; read-out: Range of IC50 values calculated from the cellular assays (Assay 2)
T1 construct: endogenous in cells; host or cells: primary hepatocytes from male C56BL/6 (so in the source) mouse liver
T1 sequence (Q9WU19 1-370): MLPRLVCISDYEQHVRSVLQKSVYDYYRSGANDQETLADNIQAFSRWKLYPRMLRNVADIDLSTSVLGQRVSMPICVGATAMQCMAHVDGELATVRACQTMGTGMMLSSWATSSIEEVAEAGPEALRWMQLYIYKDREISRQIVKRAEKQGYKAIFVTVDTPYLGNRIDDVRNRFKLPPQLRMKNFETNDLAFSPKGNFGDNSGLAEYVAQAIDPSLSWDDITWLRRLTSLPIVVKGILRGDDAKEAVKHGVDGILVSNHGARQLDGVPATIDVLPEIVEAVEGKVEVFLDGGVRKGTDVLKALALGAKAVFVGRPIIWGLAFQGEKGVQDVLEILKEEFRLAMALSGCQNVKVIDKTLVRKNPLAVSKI
Experimental: Assay 2: GO Cellular Assay: Primary Hepatocyte Assay
Primary hepatocytes were used for a GO cellular assay as previously described (Martin-Higueras et al., Mol Ther. 24(4): 719-725 (2016)). Hepatocytes were isolated using an in situ collagenase perfusion method from male C56BL/6 mice liver. The freshly isolated hepatocytes were cultured in six well plates with Williams E medium supplemented with 5% fetal bovine serum, 2 mM 1-glutamine, 100 U/ml penicillin, 100 μg/ml streptomycin, 2.2 mUI/ml insulin and 0.3 μg/ml hydrocortisone. After 5 hours, the medium was changed to Williams E complete medium (Biochrom, Cambridge, UK) without serum and cells were treated with various concentrations of inhibitors in the presence of 5 mM glycolate. Culture medium was harvested at 72 hours after treatment, and the oxalate was quantified by using an oxalate oxidase assay kit (Trinity Biotech, Co Wicklow, Ireland) following manufacturer's instructions. The oxalate level was also confirmed by LC-MS method. The IC50 value for each measured compound was generated from sigmoidal dose-response (variable slope) curves with GraphPad Prism software (GraphPad Software, Inc., San Diego, Calif.) using the percent inhibition of GO activity relative to DMSO control.

GO [2] = molecular target: T2, GO (Homo sapiens, UniProt Q9UJM8); test: GO Cellular Assay: CHO-Agt Cells Assay (Assay 3); format: cell-based, Chinese hamster; parameters: host or cells: CHO cells (A.T.C.C. CCl-61) and engineered CHO-Agt cells (from Fargue/Danpure); conditions: 100 uM glycolic acid, glyoxylate by LC-MS at 2 hours, read-out: Range of IC50 values calculated from the cellular assays (Assay 3)
T2 sequence (Q9UJM8 1-370): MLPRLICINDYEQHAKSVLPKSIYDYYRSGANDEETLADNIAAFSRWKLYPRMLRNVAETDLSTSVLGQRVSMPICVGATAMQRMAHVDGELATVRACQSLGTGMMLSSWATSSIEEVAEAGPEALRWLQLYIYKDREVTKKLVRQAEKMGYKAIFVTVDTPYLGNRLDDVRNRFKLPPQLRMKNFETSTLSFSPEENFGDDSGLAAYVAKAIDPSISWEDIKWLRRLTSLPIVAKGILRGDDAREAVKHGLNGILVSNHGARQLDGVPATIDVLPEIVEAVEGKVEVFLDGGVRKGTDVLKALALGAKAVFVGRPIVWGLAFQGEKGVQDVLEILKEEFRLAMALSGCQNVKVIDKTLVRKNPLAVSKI
Experimental: Assay 3: GO Cellular Assay: CHO-Agt Cells Assay
CHO cells (A.T.C.C. number CCl-61) and engineered CHO-Agt cells (provided by Dr. Sonia Fargue and Dr. Christopher J. Danpure, Biochem. J. (2006) 394, 409-416) were used as a screening cellular assay for primary compounds. The cells were seeded in 20,000 cell/well in 96 well plate and cultured at 37-C under O2/CO2 (19:1) in Ham's F12 medium (Invitrogen) supplemented with fetal calf serum (10%, v/v), L-glutamine (2 mM), penicillin (100 units/ml) and streptomycin (100 pug/ml). After overnight culture, the cells were treated with various concentrations of inhibitors in the presence of 100 uM glycolic acid in HEPES buffer, pH7.0 (Sigma-Aldrich, Cat #124737). Culture medium was harvested at 2 hours after treatment for glyoxylate analysis and cell viability was measured by Cell Titer-Glo (Fisher Scientific, Cat #. PR-G7570).
The glyoxylate was quantified using LC-MS method. An aliquot of 120 μL medium was removed from each well and protein precipitated by adding 240 μL IS (100 ng/ml 13C2-glyoxylic acid, Sigma-Aldrich, Cat #G755002). The mixture was vortex-mixed well and centrifuged at 3900 rpm for 15 min, 4° C. 100 μL supernatant was then mixed with 10 μL formic acid and 100 μL 400 μM DNPH (2,4-dinitrophenylhydrazine) (Shanghai Runjie Huaxue Shiji Ltd., Cat #A0000436) and the mixture was shaken for 30 minutes. A 3 μL mixture of reaction mixture was injected for LC-MS/MS analysis. (Behnam J T, Williams E L, Brink S, Rumsby G, Danpure C J., “Reconstruction of human hepatocyte glyoxylate metabolic pathways in stably transformed Chinese-hamster ovary cells”, Biochem J. 2006 Mar. 1; 394 (Pt 2):409-16.)

## CCN(CC)C(=O)OCOC(=O)c1[nH]nnc1O[C@H]1CC[C@H](c2ccc(OC(F)(F)F)cc2)CC1 [Compound 370, ((diethylcarbamoyl)oxy)methyl 4-(((trans)-4-(4-(trifluoromethoxy)phenyl)cyclohexyl)oxy)-1H-1,2,3-triazole-5-carboxylate]
GO [1]
  IC50: < 1000 nM

## CC(C)C(=O)OCCOC(=O)c1[nH]nnc1O[C@H]1CC[C@H](c2ccc(OC(F)(F)F)cc2)CC1 [Compound 371, 2-(isobutyryloxy)ethyl 4-(((trans)-4-(4-(trifluoromethoxy)phenyl)cyclohexyl)oxy)-1H-1,2,3-triazole-5-carboxylate]
GO [1]
  IC50: < 1000 nM

## OCc1[nH]nnc1Oc1ccc(-c2ccc(OC(F)(F)F)cc2)cc1 [Compound 487, (4-((4′-(trifluoromethoxy)-[1,1′-biphenyl]-4-yl)oxy)-1H-1,2,3-triazol-5-yl)methanol]
GO [1]
  IC50: 1000 to 5000 nM
GO [2]
  IC50: 1 to 5 µM

## OCc1[nH]nnc1O[C@H]1CC[C@H](c2ccc(OC(F)(F)F)cc2)CC1 [Compound 488, (4-(((trans)-4-(4-(trifluoromethoxy)phenyl)cyclohexyl)oxy)-1H-1,2,3-triazol-5-yl)methanol]
GO [1]
  IC50: < 1000 nM
GO [2]
  IC50: 1 to 5 µM

## OCc1[nH]nnc1S[C@H]1CC[C@@H](c2ccc(OC(F)(F)F)cc2)CC1 [Compound 489, (4-(((cis)-4-(4-(trifluoromethoxy)phenyl)cyclohexyl)thio)-1H-1,2,3-triazol-5-yl)methanol]
GO [2]
  IC50: 1 to 5 µM

## O=Cc1[nH]nnc1O[C@H]1CC[C@H](c2ccc(OC(F)(F)F)cc2)CC1 [Compound 490, 4-(((trans)-4-(4-(trifluoromethoxy)phenyl)cyclohexyl)oxy)-1H-1,2,3-triazole-5-carbaldehyde]
GO [1]
  IC50: < 1000 nM
GO [2]
  IC50: < 1 µM

## O=Cc1[nH]nnc1Oc1ccc(-c2ccc(OC(F)(F)F)cc2)cc1 [Compound 491, 4-((4′-(trifluoromethoxy)-[1,1′-biphenyl]-4-yl)oxy)-1H-1,2,3-triazole-5-carbaldehyde]
GO [1]
  IC50: < 1000 nM
GO [2]
  IC50: < 1 µM

## OCc1[nH]nnc1Sc1ccc(-c2ccc(N3CCCCC3)cc2)cc1 [Compound 492, (4-((4′-(piperidin-1-yl)-[1,1′-biphenyl]-4-yl)thio)-1H-1,2,3-triazol-5-yl)methanol]
GO [1]
  IC50: < 1000 nM
GO [2]
  IC50: > 10 µM

## OCc1[nH]nnc1Oc1ccc(-c2ccc(Cl)c(Cl)c2)cc1 [Compound 493-1, (4-((3′,4′-dichloro-[1,1′-biphenyl]-4-yl)oxy)-1H-1,2,3-triazol-5-yl)methanol]
GO [1]
  IC50: < 1000 nM
GO [2]
  IC50: 1 to 5 µM

## OCc1[nH]nnc1Oc1ccc(-c2ccc(Cl)cc2)cc1 [Compound 493-2, (4-((4′-chloro-[1,1′-biphenyl]-4-yl)oxy)-1H-1,2,3-triazol-5-yl)methanol]
GO [2]
  IC50: 1 to 5 µM

## OCc1[nH]nnc1OC1CCN(c2cc(Cl)cc(Cl)c2)CC1 [Compound 494, (4-((1-(3,5-dichlorophenyl)piperidin-4-yl)oxy)-1H-1,2,3-triazol-5-yl)methanol]
GO [2]
  IC50: 5 to 10 µM

## OCc1[nH]nnc1SC1CCN(c2cc(Cl)cc(Cl)c2)CC1 [Compound 495, (4-((1-(3,5-dichlorophenyl)piperidin-4-yl)thio)-1H-1,2,3-triazol-5-yl)methanol]
GO [2]
  IC50: > 10 µM

## OCc1nn[nH]c1Oc1ccc(-c2ccc(N3CCCCC3)cc2)cc1 [Compound 496, (4-((4′-(piperidin-1-yl)-[1,1′-biphenyl]-4-yl)oxy)-1H-1,2,3-triazol-5-yl)methanol]
GO [1]
  IC50: < 1000 nM
GO [2]
  IC50: < 1 µM

## OCc1[nH]nnc1Sc1ccc(-c2ccc(OC(F)(F)F)cc2)cc1 [Compound 497, (4-((4′-(trifluoromethoxy)-[1,1′-biphenyl]-4-yl)thio)-1H-1,2,3-triazol-5-yl)methanol]
GO [2]
  IC50: > 10 µM
